Measurements from the METLIN SMRT retention time set (Domingo-Almenara et al. 2019).

Test: gradient 5% acetonitrile 3 min, to 50% in 2 min, to 85% in 15 min, held 3 min, 100 µL/min
Conditions: column: Zorbax Extend-C18 2.1 x 50 mm; eluents: water / acetonitrile, 0.1% formic acid
Procedure, shortened: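 Pure standards were run in mixtures of ~100 molecules by HPLC coupled to a quadrupole time-of-flight mass spectrometer. The column was a Zorbax Extend-C18 (2.1 × 50 mm, 1.8 μm) at 100 μL/min, with water and acetonitrile each containing 0.1% formic acid, in positive and negative ionization mode. Dead and dwell volumes were 40 μL and 900 μL. Retention time was taken from computationally picked adduct peaks, each manually inspected, with data collected over 3 months.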

| SMILES | RP-LC retention time [s] |
| --- | --- |
| COc1cccc(N2CCN(S(=O)(=O)c3cc(-c4cc(C(F)(F)F)[nH]n4)sc3C)CC2)c1 | 1120 |
| CC(C)NC(=O)CC1CCN(C(=O)c2cc3cc(Cl)ccc3[nH]2)CC1 | 773 |
| Fc1cccc(-c2nnc(-c3ccccc3Cl)o2)c1 | 1060 |
| COc1ccc(-c2c(C)noc2NC(C)=O)cc1S(=O)(=O)Nc1cc(F)ccc1F | 748 |
| COc1ccc(C2=C(C)C(N3CCC(C(=O)NC4CCCC4)CC3)=NS2(=O)=O)cc1 | 780 |
| O=C(CC1CCN(C(=O)c2ccc3oc(-c4ccccc4)nc3c2)CC1)NCC1CCCO1 (stereo unspecified) | 718 |
| O=c1n(Cc2cccc(C(F)(F)F)c2)nc2c(S(=O)(=O)N3CCCCC3)cccn12 | 993 |
| CC(C)CCN1C(=O)C2CCCN2C(=O)c2ccccc21 (stereo unspecified) | 797 |
| CC(=O)Nc1ccc(NC(=O)c2nn(-c3ccccc3)c3ccccc3c2=O)cc1 | 714 |
| Cc1cc(NC(=O)c2ccco2)c2cc(F)cc(F)c2n1 | 668 |
| c1ccc(-c2cn3c(n2)SCC3)cc1 | 549 |
| Cc1ccc2[nH]cc(CCNC(=O)NC3CCCCC3)c2c1 | 874 |
| CC(C)n1c(=O)sc2cc(S(=O)(=O)N3CCC(C(=O)Nc4ccc(F)c(F)c4)CC3)ccc21 | 1020 |
| CCS(=O)(=O)N1CCC(c2noc(COCCOC)n2)CC1 | 681 |
| COc1nn(C)cc1C(=O)NCC(=O)N1CCc2ccccc2C1 | 657 |
| O=C(Nc1ccc(Cl)cc1)C(=O)c1cn(CC(=O)N2CCCC2)c2ccccc12 | 1020 |
| Nc1nnc(SCc2nnc(-c3ccccc3)o2)s1 | 654 |
| Cc1nn2c(CNS(=O)(=O)c3cc(F)ccc3F)c(-c3ccccc3)nc2s1 | 848 |
| CCOc1cc(-c2noc(-c3ncn4c3COC(c3ccc(F)cc3)C4)n2)ccc1OC (stereo unspecified) | 1040 |
| COc1ccc(Cl)cc1S(=O)(=O)N1CC(c2nc(-c3ccncc3)nn2C)C1 | 664 |
| COc1ccc(OC)c(CNC(=O)c2ccc3c(c2)N(C)C(=O)c2ccccc2O3)c1 | 852 |
| COc1ccc(-n2nc(SCC(=O)Nc3ccc(F)c(F)c3)ccc2=O)cc1 | 772 |
| O=C(O)CSc1ccc(NC(=O)Nc2ccccc2F)cc1 | 842 |

| SMILES | RP-LC retention time [s] |
| --- | --- |
| Cc1ccc2c(c1)N(Cc1nc(-c3cccc(Br)c3)no1)C(=O)CO2 | 1180 |
| CC(C)CNC(=O)c1ccn[nH]1 | 604 |
| Cc1cc(N(C)C)n2nc(CN3CCN(c4ccccc4Cl)CC3)nc2n1 | 627 |
| CCCN1CC[C@@H]2c3cc(O)ccc3CC[C@@H]21 | 593 |
| CCc1nccn1Cc1nc(-c2ccc3c(c2)OCO3)no1 | 621 |
| Cc1ccc(-c2cc(C(F)(F)F)on2)cc1S(=O)(=O)N1CCN(c2ccccn2)CC1 | 868 |
| CCc1nc2onc(C)c2c(=O)n1CC(=O)NCc1ccccc1F | 792 |
| O=C(Cc1ccc(F)cc1)N1CCCC1c1nc(-c2ccc(F)cc2)no1 (stereo unspecified) | 1010 |
| CC1(C(=O)NC2CCCC2)Cn2cnc(C(=O)NCCCc3ccccc3)c2C(=O)N1C1CC1 (stereo unspecified) | 823 |
| CCOC(=O)c1ccc(NC(=O)Cn2nc3n(c2=O)CCCCC3)cc1 | 685 |
| Cc1noc(C)c1CCC(=O)N1CC(n2cc(COc3ccc(F)cc3)nn2)C1 | 736 |
| Cc1ccc(NC(=O)N2CC(N(Cc3ccncc3)CC(C)C)C2)cc1F | 705 |
| OCCNc1nc(NCCc2cccs2)nc2c1cnn2-c1ccc(F)cc1 | 698 |
| COc1cc(NC(=O)NCC(c2cccnc2)c2c[nH]c3ccccc23)cc(OC)c1OC (stereo unspecified) | 631 |
| COc1ccc(C2Cn3nnc(-c4nc(-c5ccc(OC(F)(F)F)cc5)no4)c3CO2)cc1 (stereo unspecified) | 1240 |
| CC(C)n1cnc2cc(CNC(=O)Cc3ccsc3)ccc21 | 582 |
| CC(C)CC(=O)Nc1nc(-c2ccc3ccccc3c2)cs1 | 1140 |
| O=C(CCc1c(-c2ccc(F)cc2)nc2ccccn12)NCc1cccc(F)c1 | 645 |
| CCc1noc(-c2ccc(-n3cnc(C(=O)NC(C)CC)c3)nc2)n1 (stereo unspecified) | 828 |
| Cc1nc(-c2ccccc2F)sc1C(=O)N1CCCC1 | 880 |
| O=C(Cn1cc(-c2nc(-c3ccc(Cl)cc3)no2)ccc1=O)N1CCCC1 | 959 |
| CC(C)CCNC(=O)N(C)Cc1nc2cc(C(=O)NC(C)C)ccc2n1C | 626 |
| CCN1CCN(C(=O)c2cc(-c3ccc(C)cc3)cn2CC)CC1 | 678 |

| SMILES | RP-LC retention time [s] |
| --- | --- |
| COc1cc(NC(=O)C2CCN(S(=O)(=O)c3ccc4c(c3)CCCC(=O)N4)CC2)cc(OC)c1 | 762 |
| CC(C)CN1C(=O)c2cccn2CC1C(=O)NCCN(C)C1CCCCC1 (stereo unspecified) | 614 |
| Cc1oc(-c2[nH]ncc2C(=O)N2CCOCC2)cc1S(=O)(=O)N1CCN(C)CC1 | 553 |
| O=C(Nc1ccc(Br)cc1F)N1CCc2nc[nH]c2C1 | 593 |
| O=C(NCCC1=CCCCC1)c1nc(Nc2ccc(F)cc2)c2ccccc2n1 | 962 |
| O=c1[nH]cc(S(=O)(=O)N2CCCCCC2)c(=O)[nH]1 | 650 |
| O=C(NCCCN1CCCCC1)C1=C2CCCN2c2ccc(F)cc2S1(=O)=O | 606 |
| CCCCC(=O)N(CCC)CCC | 965 |
| CCc1nc2cc(N3CCCC(C(=O)NCC(C)C)C3)cnc2nc1CC (stereo unspecified) | 790 |
| Cc1ccc2nc(N3CCN(C)CC3)c(-c3noc(-c4ccccc4)n3)cc2c1 | 715 |
| Cc1cccc(-c2nc(Cn3nnc(-c4nc(-c5ccccc5)no4)c3C)c(C)o2)c1 | 1280 |
| COC(=O)c1ccccc1NC(=O)NCCc1c(C)nn(C)c1C | 629 |
| O=C(NC(c1ccccc1)c1nnc(N2CCCC2)o1)c1ccc(Cl)cc1 (stereo unspecified) | 860 |
| Cn1c(-c2cccs2)nn(CCNC(=O)c2ccccc2SC(F)F)c1=O | 677 |
| CCOCCCNC(=O)CCCN1C(=O)CCn2nc(C)cc21 | 568 |
| COc1ccc(-c2nc(C3CC(=O)N(c4ccc(F)c(Cl)c4)C3)no2)cc1 (stereo unspecified) | 1050 |
| CC(=O)Oc1cc2c(s1)CCN(C(C(=O)C1CC1)c1ccccc1F)C2 (stereo unspecified) | 739 |
| O=C(CCc1c(-c2ccc(F)cc2)nc2ccccn12)Nc1ccccc1F | 653 |
| Cc1cccc(NS(=O)(=O)c2cc3c(s2)CCN(C(=O)C2CC2)C3)c1C | 858 |
| CC(C)(C)NC(=O)NC1CCN(C(=O)c2ccccc2)C1 (stereo unspecified) | 683 |
| COc1ccc(C(=O)N2C[C@@H](Oc3cccnc3)C[C@H]2C(N)=O)c(OC)n1 | 572 |
| Cn1c(=O)sc2cc(S(=O)(=O)N3CCC(C(=O)NCc4ccccc4Cl)CC3)ccc21 | 883 |
| O=C(Nc1nnc(SCc2ccccc2F)s1)c1ccccc1C(F)(F)F | 944 |

| SMILES | RP-LC retention time [s] |
| --- | --- |
| O=C(Nc1ccccc1Cl)c1cc(C2CC2)n2nccc2n1 | 1190 |
| Cc1ccc(-c2noc(CCN3CCN(c4ccccn4)CC3)n2)cc1 | 625 |
| CCn1cnc(S(=O)(=O)N2CCCC(C(=O)Nc3cccc(C)c3C)C2)c1 (stereo unspecified) | 754 |
| CC(Cc1ccco1)NC(=O)c1ccc2ccnc(N3CCN(c4ccccc4)CC3)c2c1 (stereo unspecified) | 806 |
| O=C(Cn1cnc(-c2cccs2)cc1=O)NCc1nc2ccccc2[nH]1 | 570 |
| CC(=O)c1ccc(NC(=O)Cn2cc(-c3ccccc3)c3ncn(C4CC4)c(=O)c32)cc1 | 846 |
| COc1cc(NC(=O)Cn2cc(-c3nnc(C)o3)c3ccccc32)cc(OC)c1 | 809 |
| COc1ccc(CC(=O)NC2CCN(c3cc(-c4ccc(Cl)cc4)[nH]n3)C2)cc1OC (stereo unspecified) | 728 |
| O=C(O)c1cnc(N2CCOCC2)nc1-c1ccc(Cl)cc1 | 823 |
| CN(CCc1noc(COc2ccccc2F)n1)C(=O)c1c(F)cccc1F | 885 |
| COc1ccc(OC)c(NC(=O)C2CCN(C(=O)C3Sc4ccccc4NC3=O)CC2)c1 (stereo unspecified) | 754 |
| CCN1C(=O)COc2ccc(-c3noc(-c4ccc(OC)c(OC)c4)n3)cc21 | 1020 |
| CC1CCN(C(=O)C2CCN(c3cncnc3N3CCN(C)CC3)CC2)CC1 | 558 |
| CCCNc1c(C(=O)OC)c(=O)[nH]c2ccc(F)cc12 | 699 |
| CC(C)CN1CCn2cc(S(=O)(=O)NCc3ccccc3F)cc2C1=O | 792 |
| O=C(NCCc1noc(C2CC2)n1)c1ccoc1 | 664 |
| Cc1noc(C)c1-c1ccc(S(=O)(=O)Nc2ccc(C#N)cc2)cc1 | 874 |
| Cc1cc(C)cc(NC(=O)C2CCN(S(=O)(=O)c3cc(C(=O)N4CCOCC4)cs3)CC2)c1 | 760 |
| CCN1C(=O)C2(CCN(S(=O)(=O)c3ccc(F)c(C)c3)CC2)c2ccccc21 | 1090 |
| CCn1cc(-c2nc(C)c(C(=O)NCc3ccc(C)cc3)s2)c2cccnc21 | 1000 |
| COc1ccc(C2(C(=O)N3CCC([C@H]4[C@@H](OC)C(=O)N4C(C)C)CC3)CC2)cc1 | 776 |
| Cc1ccc(CNC(=O)N2CCC(OC3CCN(S(C)(=O)=O)CC3)CC2)cc1 | 760 |
